Experimental data: US12421212B2, “Substituted benzenecarboxamides as IL-17A modulators” (DiCE Alpha, Inc., priority 2019, dated 2025)

Biological target: T1, IL-17A/A (Homo sapiens, UniProt Q16552)
T1 construct: purchased Genscript Z03228
T1 sequence (Q16552 24-155): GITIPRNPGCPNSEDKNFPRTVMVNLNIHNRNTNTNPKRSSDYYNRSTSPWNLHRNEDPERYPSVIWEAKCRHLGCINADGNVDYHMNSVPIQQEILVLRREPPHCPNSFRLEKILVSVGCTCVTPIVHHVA
Test: IL-17A/A HEK-Blue Cell Assay
Assay type: cell-based
Settings: HEK-Blue IL-17A reporter cell line, SEAP readout at A630, 20 hours incubation with IL-17A/A, top concentration 10 uM, 1 uM or 0.3 uM; for IC50: read-out: IL-17A/A inhibition (pIC50) (converted)

| SMILES | IC50 [nM] | IL-17A/A inhibition (pIC50) |
| --- | --- | --- |
| CCC(=O)N[C@H](Cc1ccc(NC(=O)[C@@H](NC(=O)c2ccnn2CC)C2Cc3ccccc3C2)c(F)c1)C(=O)N1CCN(C)CC1 [Compound 728] |  | X2a (compounds were evaluated up to 1 uM and did not inhibit activity by >80%, however they showed some activity at 1 uM (less than 80% and more than 20%)) |
| CCC(=O)N[C@@H](C(=O)N1CCN(C)CC1)[C@@H](C)c1ccc(NC(=O)[C@@H](NC(=O)[C@@H]2CCCN2C)C2CCCCC2)c(F)c1 [Compound 758] |  | X2b (compounds were evaluated up to 1 uM and inhibited activity at 1 uM by less than 20%) |
| CCC(=O)N[C@@H](C(=O)N1CCN(C)CC1)[C@@H](C)c1ccc(NC(=O)[C@@H](NC(=O)c2conc2C(C)C)C2CCCCCC2)c(F)c1 [Compound 268] | < 10 |  |
| CCC(=O)NC(C(=O)N1CCN(Cc2ccccc2)CC1)C(C)c1ccc(NC(=O)[C@@H](NC(=O)c2ccnn2CC)[C@H]2CC[C@H](C)CC2)c(F)c1 (single isomer, unassigned) [Compound 663] |  | X3b (compounds were evaluated up to 0.3 uM and inhibited activity at 0.3 uM by less than 20%) |
| CCC(=O)N[C@@H](C(=O)N1CCN(C)CC1)[C@@H](C)c1ccc(NC(=O)[C@@H](NC(=O)c2csc3ccccc23)C2CCCCCC2)c(F)c1 [Compound 259] | < 10 |  |
| CCC(=O)N[C@H](Cc1ccc(NC(=O)[C@@H](NC(=O)C(F)(F)c2ccc(OC)cc2)C2CCCCC2)c(F)c1)C(=O)N1CCN(C)CC1 [Compound 206] | 100 to 10000 |  |
| CCC(=O)N[C@H](Cc1ccc(NC(=O)[C@@H](NC(=O)c2ccnn2CC)C2CCCCC2)c(F)c1)C(=O)N1CC2(CN(C)C2)C1 [Compound 750] |  | X2b (compounds were evaluated up to 1 uM and inhibited activity at 1 uM by less than 20%) |
| CCC(=O)N[C@@H](C(=O)N1CCN(C)CC1)[C@@H](C)c1ccc(NC(=O)C(NC(=O)c2nonc2CC)C(C)C2CCC(C)CC2)c(F)c1 (single isomer, unassigned) [Compound 613] |  | X2b (compounds were evaluated up to 1 uM and inhibited activity at 1 uM by less than 20%) |
| CCC(=O)N[C@H](Cc1ccc(NC(=O)[C@H](Cc2ccccc2F)NC(=O)c2ccnn2CC)c(F)c1)C(=O)N1CCN(C)CC1 [Compound 725] |  | X2b (compounds were evaluated up to 1 uM and inhibited activity at 1 uM by less than 20%) |
| CCC(=O)N[C@@H](C(=O)N1CCN(C)CC1)[C@@H](C)c1ccc(NC(=O)[C@@H](NC(=O)c2conc2CC)[C@H]2CC[C@H](C)CC2)c(F)c1 [Compound 264] | 10 to 100 |  |
| CCC(=O)N[C@@H](C(=O)N1CCN(C)CC1)[C@H](C)c1ccc(NC(=O)[C@@H](NC(=O)c2ccnn2CC)C2CCCCC2)cc1 [Compound 771] |  | X1a (compounds were evaluated up to 10 uM and did not inhibit activity by >80%, however they showed some activity at 10 uM (less than 80% and more than 20%)) |
| CCn1nccc1C(=O)N[C@H](C(=O)Nc1ccc([C@H](C)[C@@H](NC(=O)c2ccn(C)n2)C(=O)N2CCN(C)CC2)cc1F)C1CCCCC1 [Compound 744] |  | X2a (compounds were evaluated up to 1 uM and did not inhibit activity by >80%, however they showed some activity at 1 uM (less than 80% and more than 20%)) |
| CCC(=O)N[C@@H](C(=O)N1CCN(C)CC1)[C@@H](C)c1ccc(NC(=O)[C@@H](NC(=O)c2cccn2CC)C2CCCCCC2)c(F)c1 [Compound 275] | < 10 |  |
| CCC(=O)N[C@H](Cc1ccc(NC(=O)[C@@H](NC(=O)C(F)(F)c2ccc(C)cc2)C2CCCCC2)c(F)c1)C(=O)N1CCN(C)CC1 [Compound 210] | 100 to 10000 |  |
| CCC(=O)N[C@@H](C(=O)N1CCN(C)CC1)[C@@H](C)c1ccc(NC(=O)C(NC(=O)c2nonc2CC)C(CC)c2ccc(F)cc2)c(F)c1 (single isomer, unassigned) [Compound 559] |  | X2b (compounds were evaluated up to 1 uM and inhibited activity at 1 uM by less than 20%) |

The next lines start with results.

| IC50 [nM] | SMILES | IL-17A/A inhibition (pIC50) |
| --- | --- | --- |
| 10 to 100 | CCc1nonc1C(=O)N[C@H](C(=O)Nc1ccc([C@H](C)[C@@H](NC(=O)c2nonc2C)C(=O)N2CCN(C)CC2)cc1F)[C@H]1CC[C@H](C)CC1 [Compound 489] |  |
| < 10 | CCC(=O)N[C@@H](C(=O)N1CCN(C)CC1)[C@@H](C)c1ccc(NC(=O)[C@@H](NC(=O)C(F)(F)c2ccc(OC)nc2)[C@H]2CC[C@H](C)CC2)c(F)c1 [Compound 295] |  |
| 10 to 100 | CCn1nccc1C(=O)N[C@H](C(=O)Nc1ccc([C@H](C)[C@@H](NC(=O)c2cnns2)C(=O)N2CCOCC2)cc1F)[C@H]1CC[C@H](C)CC1 [Compound 381] |  |
| 100 to 10000 | CCC(=O)N[C@H](Cc1ccc(NC(=O)[C@@H](NC(=O)c2ccnn2CC(F)F)C2CCCCC2)c(F)c1)C(=O)N1CCN(C)CC1 [Compound 669] |  |
| 10 to 100 | CCc1nonc1C(=O)N[C@H](C(=O)Nc1ccc([C@H](C)[C@@H](NC(=O)N(C)C2CC2)C(=O)N2CCN(C)[C@@H](C)C2)cc1F)[C@H]1CC[C@H](C)CC1 [Compound 509] |  |
| 100 to 10000 | CCC(=O)N[C@H](Cc1ccc(NC(=O)[C@@H](NC(=O)c2ccnn2CC)C2CCC(F)(F)CC2)c(F)c1)C(=O)N1CCN(C)CC1 [Compound 689] |  |
| 100 to 10000 | CCn1nccc1C(=O)N[C@H](C(=O)Nc1ccc([C@H](C)[C@@H](NC(=O)c2cc(C#N)cs2)C(=O)N2CCN(C)CC2)cc1F)C1CCCCC1 [Compound 624] |  |
| 100 to 10000 | CCC(=O)N[C@H](Cc1ccc(NC(=O)[C@@H](NC(=O)c2ccnn2CC)C2CCCCC2)c(F)c1)C(=O)N1CCN(CCF)CC1 [Compound 679] |  |
| 10 to 100 | COc1ccc(C(F)(F)C(=O)N[C@H](C(=O)Nc2ccc([C@H](C)[C@@H](NC(=O)c3cnsc3)C(=O)N3CCN(C)CC3)cc2F)[C@H]2CC[C@H](C)CC2)cn1 [Compound 622] |  |
| 10 to 100 | CCC(=O)N[C@@H](C(=O)N1CCOCC1)[C@@H](C)c1ccc(NC(=O)[C@@H](NC(=O)c2ccnn2CC)C2CCCCC2)c(F)c1 [Compound 359] |  |
| 100 to 10000 | CCC(=O)N[C@@H](C(=O)N1CCN(C)CC1)[C@@H](C)c1ccc(NC(=O)[C@@H](NC(=O)C(=O)c2ccc(NS(C)(=O)=O)nc2)C2CCCCCC2)c(F)c1 [Compound 626] |  |
| 10 to 100 | CCn1nccc1C(=O)N[C@H](C(=O)Nc1ccc([C@H](C)[C@@H](NC(=O)NC2CC2)C(=O)N2CCN(C)CC2)cc1)C1CCCCC1 [Compound 402] |  |
| 10 to 100 | CCC(=O)N[C@@H](C(=O)N1CCC(F)(F)CC1)[C@@H](C)c1ccc(NC(=O)[C@@H](NC(=O)c2conc2C(C)(C)N)[C@H]2CC[C@H](C)CC2)c(F)c1 [Compound 534] |  |
| 10 to 100 | CCC(=O)N[C@@H](C(=O)N1CCN(C)CC1)[C@@H](C)c1ccc(NC(=O)C(NC(=O)c2ccnn2CC)[C@H](C)c2ccccc2)c(F)c1 (stereo partly drawn) [Compound 288] |  |
| < 10 | CCn1nccc1C(=O)N[C@H](C(=O)Nc1ccc([C@H](C)[C@@H](NC(=O)CC2CC2)C(=O)N2CCN(Cc3ccccc3)CC2)cc1F)[C@H]1CC[C@H](C)CC1 [Compound 443] |  |
| 100 to 10000 | CCn1nccc1C(=O)N[C@H](C(=O)Nc1ccc([C@H](C)[C@@H](NC(=O)c2cc(C)no2)C(=O)N2CCN(C)CC2)cc1F)C1CCCCC1 [Compound 656] |  |
| 10 to 100 | CCC(=O)N[C@@H](C(=O)N1CCN(C)CC1)[C@@H](C)c1ccc(NC(=O)[C@@H](NC(=O)c2ccnn2CC)C2CCCCCC2)cc1 [Compound 297] |  |
| 10 to 100 | CCn1nccc1C(=O)N[C@H](C(=O)Nc1ccc([C@H](C)[C@@H](NC(=O)C(C)(F)F)C(=O)N2CCN(C)CC2)cc1F)[C@H]1CC[C@H](C)CC1 [Compound 471] |  |
